From ChEMBL document CHEMBL3727358, “Inhibitors of inducible form of 6-phosphofructose-2-kinase” (2014)

Columns and labels:
[1] = molecular target: T1, 6-phosphofructo-2-kinase/fructose-2,6-bisphosphatase 3 (Homo sapiens, UniProt Q16875); test: Inhibition of iPFK2 (unknown origin) assessed as reduction in enzyme-mediated fructose-6-phosphate phosphorylation by measuring NADH absorbance pre-incubated for 10 mins before ATP/substrate addition followed by incubation for 1 hr by UV-Visible spectrometry based iPFK-2/PPI-PFK coupled enzyme assay
T1 sequence (Q16875 whole entry): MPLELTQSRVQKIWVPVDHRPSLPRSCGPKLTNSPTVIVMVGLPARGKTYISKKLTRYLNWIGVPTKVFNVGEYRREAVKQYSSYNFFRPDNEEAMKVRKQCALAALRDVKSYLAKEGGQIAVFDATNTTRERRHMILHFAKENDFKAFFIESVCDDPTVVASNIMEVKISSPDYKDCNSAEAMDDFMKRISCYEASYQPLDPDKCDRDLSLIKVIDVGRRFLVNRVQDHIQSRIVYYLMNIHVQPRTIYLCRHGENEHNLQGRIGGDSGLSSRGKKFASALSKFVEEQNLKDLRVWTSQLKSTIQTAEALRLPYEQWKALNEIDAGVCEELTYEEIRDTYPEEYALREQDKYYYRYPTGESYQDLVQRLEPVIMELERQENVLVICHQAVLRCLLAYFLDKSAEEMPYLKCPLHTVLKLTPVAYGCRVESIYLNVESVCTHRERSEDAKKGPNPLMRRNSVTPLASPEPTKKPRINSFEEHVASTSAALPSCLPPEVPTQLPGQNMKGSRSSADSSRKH

[2] = molecular target: T1, 6-phosphofructo-2-kinase/fructose-2,6-bisphosphatase 3; test: Inhibition of iPFK2 (unknown origin) assessed as reduction in enzyme-mediated fructose-6-phosphate phosphorylation by measuring ATP consumption incubated for 3 hrs by luciferase-luciferin-coupled chemiluminescence assay

Structure (SMILES)	IC50 [1] [nM]	IC50 [2] [nM]
Cc1nc(NC(C)c2cccc(OCC(=O)N3CCCCC3)c2)cc(-c2ccc3ncsc3c2)n1 (stereo not given)	500	
Cc1nc(NC(C)c2cccc(OCCN(C)C)c2)cc(-c2ccc3occ(C)c3c2)n1 (stereo not given)	> 1000	
Cc1nc(NC(C)c2cccc(-c3nn[nH]n3)c2)cc(-c2ccc3ncsc3c2)n1 (stereo not given)	> 1000	
Cc1nc(NCC2CCCN(C(=O)C3CCC3)C2)cc(-c2ccc3ncsc3c2)n1 (stereo not given)	> 1000	
Cc1nc(NC(C)c2cccc(OCC(=O)NC3CC3)c2)cc(-c2ccc3ncsc3c2)n1 (stereo not given)	500	
Cc1nc(NC(C)c2cccc(/C(N)=N/O)c2)cc(-c2ccc3ncsc3c2)n1 (stereo not given)	> 1000	
Cc1nc(NCC2CCCN(C(=O)C3CCCCC3)C2)cc(-c2ccc3ncsc3c2)n1 (stereo not given)	> 1000	
CCN(C)C(=O)COc1cccc(C(C)Nc2cc(-c3ccc4ncsc4c3)nc(C)n2)c1 (stereo not given)	500	
Cc1nc(NC(C)c2cccc(-c3cnn(C)c3)c2)cc(-c2cccc(N(C)C)c2)n1 (stereo not given)	> 1000	
Cc1nc(N[C@@H]2CCCc3ccccc32)cc(-c2ccc3ccccc3c2)n1		500
COc1cccc(-c2cc(NC(CCO)c3cccc(OC)c3)nc(C)n2)c1 (stereo not given)		> 1000
Cc1nc(N[C@@H]2CCCc3ccccc32)cc(-c2ccc3occ(CC(=O)NCCO)c3c2)n1		> 1000
CCc1coc2ccc(-c3cc(NC(C)c4cccc(-c5cnn(C)c5)c4)nc(C)n3)cc12 (stereo not given)		> 1000
Cc1nc(N[C@@H]2CCCc3ccccc32)cc(-c2ccncc2)n1		> 1000
Cc1nc(NCc2cccc(-n3cccc3)c2)cc(-c2ccc3ncsc3c2)n1		> 1000
COC(=O)CN(C(=O)OC(C)(C)C)S(=O)(=O)c1cccc(C(C)Nc2cc(-c3cccc(OC)c3)nc(C)n2)c1 (stereo not given)		> 1000
Cc1nc(N[C@@H]2CCCc3ccccc32)cc(-c2ccc3c(c2)NCCO3)n1		500
COc1cccc([C@H](C)Nc2cc(N[C@@H]3CCCc4ccccc43)nc(C)n2)c1		> 1000
COCCn1ccc2ccc(-c3cc(N[C@@H]4CCCc5ccccc54)nc(C)n3)cc21		> 1000
Cc1nc(NCCCN(C)c2ccccc2)cc(-c2ccc3ncsc3c2)n1		> 1000
COc1cccc(-c2cc(NC(CC(=O)NCCCN(C)C)c3cccc(OC)c3)nc(C)n2)c1 (stereo not given)		> 1000
CCOC(=O)CNC(=O)COc1cccc(C(C)Nc2cc(-c3ccc4ccn(C)c4c3)nc(C)n2)c1 (stereo not given)		500
COc1cccc(-c2cc(NC(C)c3cccc(S(=O)(=O)N(CC#N)C(=O)OC(C)(C)C)c3)nc(C)n2)c1 (stereo not given)		> 1000
Cc1nc(NC(C)c2cccc(OCc3csc(C)n3)c2)cc(-c2ccc3ncsc3c2)n1 (stereo not given)		500
CNC(=O)COc1cccc(C(C)Nc2cc(-c3ccc4c(c3)OCO4)nc(C)n2)c1 (stereo not given)		500

Structure (SMILES)	IC50 [1] [nM]	IC50 [2] [nM]
Cc1nc(NC(C)c2cccc(Br)c2)cc(-c2ccc3ncsc3c2)n1 (stereo not given)		500
COc1cccc([C@H](C)Nc2cc(-c3cccc4cc[nH]c34)nc(C)n2)c1		> 1000
Cc1nc(N[C@@H]2CCCc3ccccc32)cc(-c2cccc(N)c2)n1		> 1000
Cc1nc(NC(C)c2cccc(-c3cnn(C)c3)c2)cc(-c2cccc(O)c2)n1 (stereo not given)		500
COCC(C)Nc1cc(-c2ccc3ncsc3c2)nc(C)n1 (stereo not given)		> 1000
COc1cccc([C@H](C)Nc2cc(-c3cccc(N(C)C)c3)nc(C)n2)c1		> 1000
Cc1nc(NC(C)c2cccc(OCCCC(=O)N(C)C)c2)cc(-c2ccc3ncsc3c2)n1 (stereo not given)		500
Cc1nc(N[C@H]2CCOc3ccccc32)cc(-c2ccc3ncsc3c2)n1		> 1000
Cc1nc(NC(C)c2cccc(OCC(=O)O)c2)cc(-c2ccc3ccn(C)c3c2)n1 (stereo not given)		500
Cc1nc(N[C@H](C)c2cccc(-c3cnn(C)c3)c2)cc(-c2ccc3occ(C)c3c2)n1		500
CC(=O)N1CCOc2ccc(-c3cc(N[C@@H]4CCCc5ccccc54)nc(C)n3)cc21		> 1000
COc1cccc([C@H](C)Nc2cc(-c3ccc4ncn(C)c4c3)nc(C)n2)c1		> 1000
CCC(C)Nc1cc(-c2ccc3ncsc3c2)nc(C)n1 (stereo not given)		> 1000
Cc1nc(NC2CC(C)(C)Oc3ccccc32)cc(-c2ccc3ncsc3c2)n1 (stereo not given)		500
Cc1nc(N[C@@H](C)c2cccc(-c3cc[nH]n3)c2)cc(-c2ccc3ncsc3c2)n1		500
Cc1nc(N[C@@H]2CCCc3ccccc32)cc(-c2ccc3cn[nH]c3c2)n1		> 1000
Cc1nc(NC(C)c2cccc(OCc3ccccc3)c2)cc(-c2ccc3ncsc3c2)n1 (stereo not given)		> 1000
Cc1nc(N[C@@H]2CCCc3ccccc32)cc(-c2ccc3c(c2)OCCN3C)n1		> 1000
Cc1nc(N[C@@H](C)C(C)(C)C)cc(-c2ccc3ncsc3c2)n1		> 1000
COc1cccc([C@H](C)Nc2cc(-c3ccc(C)c(OC)c3)nc(C)n2)c1		500
CC(=O)Nc1ccc2c(c1)C(Nc1cc(-c3ccc4ncsc4c3)nc(C)n1)CCO2 (stereo not given)		> 1000
Cc1nc(NC(C)c2cccc(OCc3cccnc3)c2)cc(-c2ccc3ncsc3c2)n1 (stereo not given)		500
COc1cccc([C@H](C)Nc2cc(-c3cc(OC)ccc3Cl)nc(C)n2)c1		> 1000
COc1cccc([C@H](C)Nc2cc(-c3cccc4[nH]ccc34)nc(C)n2)c1		> 1000
C#CCNS(=O)(=O)c1cccc(C(C)Nc2cc(-c3ccc4ncsc4c3)nc(C)n2)c1 (stereo not given)		500

Structure (SMILES)	IC50 [1] [nM]	IC50 [2] [nM]
Cc1nc(NC(C)c2cccc(O)c2)cc(-c2ccc3ncsc3c2)n1 (stereo not given)		500
COc1cccc(-c2cc(NC(C)c3cccc(Br)c3)nc(C)n2)c1 (stereo not given)		> 1000
COC(=O)CNc1cccc(C(C)Nc2cc(-c3cccc(OC)c3)nc(C)n2)c1 (stereo not given)		> 1000
Cc1nc(NCCc2ccccn2)cc(-c2ccc3ncsc3c2)n1		> 1000
COc1cccc([C@H](C)Nc2cc(-c3cccc(OC)c3F)nc(C)n2)c1		500
CCc1coc2ccc(-c3cc(N[C@@H](C)c4cccc(OC)c4)nc(C)n3)cc12		> 1000
COc1cccc2c1CCCC2Nc1cc(-c2ccc3ncsc3c2)nc(C)n1 (stereo not given)		> 1000
CNC(=O)CNc1cc(-c2cc(N[C@@H]3CCCc4ccccc43)nc(C)n2)ccc1Cl		> 1000
COc1ccc2c(c1)CCCC2Nc1cc(-c2ccc3ncsc3c2)nc(C)n1 (stereo not given)		500
Cc1nc(NC(C)c2cccc(OCCF)c2)cc(-c2ccc3ncsc3c2)n1 (stereo not given)		500
CCc1ccc(-c2cc(NC(C)c3cccc(-c4cnn(C)c4)c3)nc(C)n2)cc1 (stereo not given)		500
Cc1nc(N[C@@H]2CCCc3ccccc32)cc(-c2cccc(Cl)c2)n1		500
Cc1nc(N[C@@H]2CCCc3ccccc32)cc(-c2cccc(OC(F)(F)F)c2)n1		> 1000
CNC(=O)COc1cccc(C(C)Nc2cc(-c3cccc(OC)c3)nc(C)n2)c1 (stereo not given)		500
Cc1nc(N[C@@H](C)c2cccc(-c3ccccc3)c2)cc(-c2ccc3occ(C)c3c2)n1		500
CCCOc1cccc(C(C)Nc2cc(-c3ccc4ncsc4c3)nc(C)n2)c1 (stereo not given)		> 1000
Cc1nc(NC(C)c2cccc(-c3cnn(C)c3)c2)cc(-c2ccc3[nH]ccc3c2)n1 (stereo not given)		500
COc1cccc([C@H](C)Nc2cc(-c3ccccc3Cl)nc(C)n2)c1		> 1000
Cc1nc(NCC2CCCN(C(=O)OC(C)(C)C)C2)cc(-c2ccc3ncsc3c2)n1 (stereo not given)		> 1000
CC(=O)c1cccc(-c2cc(N[C@@H]3CCCc4ccccc43)nc(C)n2)c1		> 1000
CCn1ccc2ccc(-c3cc(N[C@@H](C)c4cccc(OC)c4)nc(C)n3)cc21		> 1000
Cc1nc(NC(C)c2cccnc2)cc(-c2ccc3ncsc3c2)n1 (stereo not given)		500
Cc1nc(N[C@@H]2CCCc3ccccc32)cc(-c2ccc3c(ccn3C)c2)n1		500
Cc1nc(NC(C)c2cccc(C#N)c2)cc(-c2ccc3ncsc3c2)n1 (stereo not given)		500
Cc1nc(N[C@@H]2CCCc3ccccc32)cc(-c2ccc3[nH]ncc3c2)n1		> 1000

Structure (SMILES)	IC50 [1] [nM]	IC50 [2] [nM]
COc1cccc([C@H](C)Nc2cc(-c3cccc(Cl)c3)nc(C)n2)c1		500
CCC(Nc1cc(-c2cccc(OC)c2)nc(C)n1)c1cccc(OC)c1 (stereo not given)		> 1000
Cc1nc(NC(C)c2cccc(OCc3ccn(C)n3)c2)cc(-c2ccc3occc3c2)n1 (stereo not given)		500
Cc1nc(N[C@@H]2CCCc3ccccc32)cc(-c2ccc(F)cc2)n1		500
COc1cccc([C@H](C)Nc2cc(-c3cccc(OC(F)(F)F)c3)nc(C)n2)c1		> 1000
COc1ccc2c(c1)C(Nc1cc(-c3ccc4ncsc4c3)nc(C)n1)CCC2 (stereo not given)		> 1000
Cc1ccc([C@H](C)Nc2cc(-c3ccc4occ(C)c4c3)nc(C)n2)cc1		500
Cc1nc(N[C@@H]2CCCc3ccccc32)cc(-c2ccccc2F)n1		> 1000
CCOC(=O)CCCOc1cccc(C(C)Nc2cc(-c3ccc4ncsc4c3)nc(C)n2)c1 (stereo not given)		> 1000
Cc1nc(N[C@@H]2CCCc3ccccc32)cc(-c2ccc(N(C)C)cc2)n1		> 1000
Cc1nc(NCCc2ccncc2)cc(-c2ccc3ncsc3c2)n1		> 1000
Cc1nc(N[C@@H]2CCCc3ccccc32)cc(-c2ccc3c(c2)NCC3)n1		> 1000
Cc1nc(N[C@@H]2CCCc3ccccc32)cc(-c2cccc(CO)c2)n1		> 1000
Cc1nc(N[C@@H]2CCCc3ccccc32)cc(-c2cccnc2)n1		> 1000
COc1cccc(-c2cc(Nc3cccc4ccccc34)nc(C)n2)c1		> 1000
Cc1nc(NC(C)c2cccc(N3CCOCC3)c2)cc(-c2ccc3ncsc3c2)n1 (stereo not given)		500
COC(=O)COc1cccc(C(C)Nc2cc(-c3cccc(OC)c3)nc(C)n2)c1 (stereo not given)		> 1000
Cc1cccc(-c2cc(NC(C)c3cccc(-c4cnn(C)c4)c3)nc(C)n2)c1 (stereo not given)		500
COc1cccc([C@H](C)Nc2cc(-c3ccc(F)cc3)nc(C)n2)c1		> 1000
Cc1nc(N[C@@H]2CCCc3ccccc32)cc(-c2cccc3c2ccn3C)n1		> 1000
COc1ccc(F)c(-c2cc(N[C@@H]3CCCc4ccccc43)nc(C)n2)c1		> 1000
COc1cccc([C@H](C)Nc2cc(-c3cccc(F)c3)nc(C)n2)c1		500
Cc1nc(N[C@@H]2CCCc3ccccc32)cc(-c2cccc3cc[nH]c23)n1		> 1000
Cc1nc(N[C@@H]2CCCc3ccccc32)cc(-c2ccccc2Cl)n1		> 1000
COc1cccc(-c2cc(NC(C)c3cccc(S(N)(=O)=O)c3)nc(C)n2)c1 (stereo not given)		> 1000
